In US12509451B2, “Heteroaryl amide inhibitors of CD38” (NAPA THERAPEUTICS LTD., priority 2020, dated 2025):

Tests used:
[1] = target: T1, recombinant human CD38 Protein (Homo sapiens, UniProt P28907); assay: Fluorescence-based NAD+ hydrolase activity assay with human recombinant CD38 protein (Assay 3); type: biochemical; settings: read-out: Assay 3 Arithmetic mean IC50
T1 construct: purchased R&D System
T1 sequence (P28907 1-300): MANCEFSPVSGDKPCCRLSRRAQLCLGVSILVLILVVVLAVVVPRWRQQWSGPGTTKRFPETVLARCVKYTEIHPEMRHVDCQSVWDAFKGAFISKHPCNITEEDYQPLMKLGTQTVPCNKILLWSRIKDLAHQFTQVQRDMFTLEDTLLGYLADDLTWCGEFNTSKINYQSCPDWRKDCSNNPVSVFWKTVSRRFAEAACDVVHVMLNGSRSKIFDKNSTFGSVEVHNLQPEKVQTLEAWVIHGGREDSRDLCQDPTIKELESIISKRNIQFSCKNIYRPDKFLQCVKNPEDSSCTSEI
Description: This protocol was modified from the following references (Muller et al. (1983); (Schultz et al. (2018); (Matalonga et al. (2017); and de Oliveira et al. (2018), supra.
(§1) NAD+ hydrolase activity of the human recombinant CD38 protein treated with test compounds was measured using a fluorescence-based assay. Briefly, recombinant human CD38 Protein (R&D System) was resuspended in 44 μl/well of Sucrose-Tris Buffer (Sucrose 0.25 M, Tris pH 7.4 40 mM) and plated in a 96-well black plate (CORNING) at a density of 10 ng/well.
Each test compound was received in a powder state and dissolved in DMSO as a 25 mM stock solution. Each test compound was serially diluted in order to generate a dose-response curve. The dilution series of each test compound in DMSO was prepared at 50× the concentrations to be assayed. Each test compound was diluted to generate a 5-fold dilution series of 8 concentrations from 20 μM to 0.256 nM in order to assay 8 final concentrations ranging from ranging from 400 nM to 25.6 pM. One μl of the 50× concentration compound series was added to each well of the plate containing 10 ng protein in Sucrose-Tris buffer.
The reaction was started adding nicotinamide 1,N^6-etheno-adenine dinucleotide (Sigma Aldrich) to reach a final concentration of 80 µM. The samples were excited at 321-15 nm and the emission of fluorescence was measured at 410-20 nm at 37° C. every minute for 1 hr in a Clariostar® microplate reader (BMG LABTECH). NAD+ hydrolase activity was calculated as the slope of the linear portion of the fluorescence-time curve using the MARS data analysis software (BMG LABTECH). The data were uploaded in the Collaborative Drug Design (CDD) Software and for each compound the IC50 was calculated by the software. […] For each plate, the z-factor was also calculated as a plate quality using the CDD software.

[2] = target: T1, recombinant human CD38 Protein; assay: Fluorescence-based NAD+ cyclase activity assay with human recombinant CD38 protein (Assay 2); type: biochemical; settings: read-out: Assay 2 Arithmetic mean IC50
Description: This protocol was modified from the de Oliveira et al., 2018 reference, supra.
as §1, with “cyclase” for “hydrolase”, “125” for “10”
Each test compound was received in a powder state and dissolved in DMSO as a 25 mM stock solution. Each test compound was serially diluted in order to generate a dose-response curve. The dilution series of each test compound in DMSO was prepared at 50 times the concentrations to be assayed. Each test compound was diluted to generate a 5-fold dilution series of 8 concentrations from 100 μM to 32 nM in order to assay 8 final concentrations ranging from 2 μM to 0.64 nM. One μl of the 50× concentration compound series was added to each well of the plate containing 125 ng of protein in Sucrose-Tris buffer.
The reaction was started adding nicotinamide guanine dinucleotide (NGD+) (Sigma Aldrich) to reach a final concentration of 150 µM. The samples were excited at 337-15 nm, and the emission of fluorescence was measured at 442-20 nm at 37° C. every minute for 1 hr in a Clariostar microplate reader (BMG LABTECH). NAD+ cyclase activity was calculated as the slope of the linear portion of the fluorescence-time curve using the MARS data analysis software (BMG LABTECH). The data were uploaded in the Collaborative Drug Design (CDD) Software, and for each compound the IC50 was calculated by the software. For each plate, the z-factor was also calculated as a plate quality using the CDD software.

Structure (SMILES)	IC50 [1]	IC50 [2]
CNC(=O)c1ccc(NC(=O)c2cccc(-n3ccnc3)n2)cn1 [Compound 2]	< 1 nM	1 to 50 nM
NC(=O)c1ccc(NC(=O)c2cccc(-n3ccnc3)n2)cn1 [Compound 3]	1 to 50 nM	1 to 50 nM
Cc1cc(NC(=O)c2cccc(-n3ccnc3)n2)cc(C)n1 [Compound 7]	1 to 50 nM	1000 to 10000 nM
O=C(Nc1ccnc(F)c1)c1cccc(-n2ccnc2)n1 [Compound 8]	1 to 50 nM	51 to 1000 nM
O=C(Nc1ccc(C(F)(F)F)nc1)c1cccc(-n2ccnc2)n1 [Compound 9]	1 to 50 nM	51 to 1000 nM
Cc1cc(NC(=O)c2cccc(-n3ccnc3)n2)ccn1 [Compound 11]	1 to 50 nM	51 to 1000 nM
COc1cc(NC(=O)c2cccc(-n3ccnc3)n2)ccn1 [Compound 12]	1 to 50 nM	51 to 1000 nM
O=C(Nc1ccncc1)c1cccc(-n2ccnc2)n1 [Compound 13]	1 to 50 nM	51 to 1000 nM
Cc1ccc(NC(=O)c2cccc(-n3ccnc3)n2)cn1 [Compound 14]	1 to 50 nM	1000 to 10000 nM
CC(=O)N(C)c1ccc(NC(=O)c2cccc(-n3ccnc3)n2)cn1 [Compound 15]	1 to 50 nM	1000 to 10000 nM
CC(=O)Nc1ccc(NC(=O)c2cccc(-n3ccnc3)n2)cn1 [Compound 16]	1 to 50 nM	51 to 1000 nM
COc1ccc(NC(=O)c2cccc(-n3ccnc3)n2)cn1 [Compound 18]	1 to 50 nM	1000 to 10000 nM
O=C(Nc1cccnc1)c1cccc(-n2ccnc2)n1 [Compound 20]	1 to 50 nM	1000 to 10000 nM
O=C(Nc1ccc(F)nc1)c1cccc(-n2ccnc2)n1 [Compound 22]	1 to 50 nM	1000 to 10000 nM
O=C(Nc1ccncn1)c1cccc(-n2ccnc2)n1 [Compound 24]	1 to 50 nM	1000 to 10000 nM
COC(=O)c1ccc(NC(=O)c2cccc(-n3ccnc3)n2)cn1 [Compound 27]	1 to 50 nM	51 to 1000 nM
O=C(Nc1ccnc(C(F)(F)F)c1)c1cccc(-n2ccnc2)n1 [Compound 28]	1 to 50 nM	1000 to 10000 nM
O=C(Nc1ccnc(C(F)(F)F)c1)c1cc(OCc2ccccc2)cc(-n2ccnc2)n1 [Compound 29, 4-(benzyloxy)-6-(1H-imidazol-1-yl)-N-[2-(trifluoromethyl)pyridin-4-yl]pyridine-2-carboxamide]	1 to 50 nM	51 to 1000 nM
O=C(Nc1ccnc(C(F)(F)F)c1)c1cc(OCC2CCOCC2)cc(-n2ccnc2)n1 [Compound 30, 6-(1H-imidazol-1-yl)-4-((tetrahydro-2H-pyran-4-yl)methoxy)-N-(2-(trifluoromethyl)pyridin-4-yl)picolinamide]	1 to 50 nM	51 to 1000 nM
COCCOc1cc(C(=O)Nc2ccnc(C(F)(F)F)c2)nc(-n2ccnc2)c1 [Compound 31, 6-(1H-imidazol-1-yl)-4-(2-methoxyethoxy)-N-(2-(trifluoromethyl)pyridin-4-yl)picolinamide]	1 to 50 nM	51 to 1000 nM
O=C(Nc1ccnc(C(F)(F)F)c1)c1cc(OC2CC2)cc(-n2ccnc2)n1 [Compound 32, 4-cyclopropoxy-6-(1H-imidazol-1-yl)-N-(2-(trifluoromethyl)pyridin-4-yl)picolinamide]	< 1 nM	51 to 1000 nM
CN(C)CCOc1cc(C(=O)Nc2ccnc(C(F)(F)F)c2)nc(-n2ccnc2)c1 [Compound 33]	< 1 nM	51 to 1000 nM
CC1(Oc2cc(C(=O)Nc3ccnc(C(F)(F)F)c3)nc(-n3ccnc3)c2)COC1 [Compound 34, 6-(1H-imidazol-1-yl)-4-((3-methyloxetan-3-yl)oxy)-N-(2-(trifluoromethyl)pyridin-4-yl)picolinamide]	1 to 50 nM	51 to 1000 nM
COc1cc(C(=O)Nc2ccnc(C(F)(F)F)c2)nc(-n2ccnc2)c1 [Compound 35, 6-(1H-imidazol-1-yl)-4-methoxy-N-(2-(trifluoromethyl)pyridin-4-yl)picolinamide]	1 to 50 nM	51 to 1000 nM
